Target: human full-length PDE2A3 enzyme (Homo sapiens (Human), UniProt O00408)
Conditions: read-out: IC50 (assay validation control); PDE2A3 SPA validation; IC50 values obtained were within 3× of literature values
Description: Measurement of Recombinant Human PDE2A3 Inhibition by SPA Technology
In the present assay, the activity of the test substances on human full-length PDE2A3 enzyme was determined using the [^3H]-cGMP scintillation proximity assay (SPA) modified from the Amersham TRKQ7100 instructions (GE Healthcare, USA). PDE2A3 protein was obtained from FLAG purification of sf21 insect cells using standard affinity purification procedures for this tag (anti-FLAG M2, Sigma Aldrich). Briefly, the SPA assays were performed using PDE SPA yttrium silicate beads (Perkin Elmer RPNQ0024) which bind preferentially to the linear nucleotide, GMP, compared to the cyclic nucleotide, cGMP. The, ^3H-GMP product was detected using a Wallac MicroBeta scintillation counter. The reaction time was chosen with respect to the amount of time in which 10-20% of substrate was hydrolyzed by the enzyme.
The corresponding IC50 values of the compounds for the inhibition of PDE activities are determined from the concentration-effect curves by means of non-linear regression.

Sequence of human full-length PDE2A3 enzyme (O00408 whole entry): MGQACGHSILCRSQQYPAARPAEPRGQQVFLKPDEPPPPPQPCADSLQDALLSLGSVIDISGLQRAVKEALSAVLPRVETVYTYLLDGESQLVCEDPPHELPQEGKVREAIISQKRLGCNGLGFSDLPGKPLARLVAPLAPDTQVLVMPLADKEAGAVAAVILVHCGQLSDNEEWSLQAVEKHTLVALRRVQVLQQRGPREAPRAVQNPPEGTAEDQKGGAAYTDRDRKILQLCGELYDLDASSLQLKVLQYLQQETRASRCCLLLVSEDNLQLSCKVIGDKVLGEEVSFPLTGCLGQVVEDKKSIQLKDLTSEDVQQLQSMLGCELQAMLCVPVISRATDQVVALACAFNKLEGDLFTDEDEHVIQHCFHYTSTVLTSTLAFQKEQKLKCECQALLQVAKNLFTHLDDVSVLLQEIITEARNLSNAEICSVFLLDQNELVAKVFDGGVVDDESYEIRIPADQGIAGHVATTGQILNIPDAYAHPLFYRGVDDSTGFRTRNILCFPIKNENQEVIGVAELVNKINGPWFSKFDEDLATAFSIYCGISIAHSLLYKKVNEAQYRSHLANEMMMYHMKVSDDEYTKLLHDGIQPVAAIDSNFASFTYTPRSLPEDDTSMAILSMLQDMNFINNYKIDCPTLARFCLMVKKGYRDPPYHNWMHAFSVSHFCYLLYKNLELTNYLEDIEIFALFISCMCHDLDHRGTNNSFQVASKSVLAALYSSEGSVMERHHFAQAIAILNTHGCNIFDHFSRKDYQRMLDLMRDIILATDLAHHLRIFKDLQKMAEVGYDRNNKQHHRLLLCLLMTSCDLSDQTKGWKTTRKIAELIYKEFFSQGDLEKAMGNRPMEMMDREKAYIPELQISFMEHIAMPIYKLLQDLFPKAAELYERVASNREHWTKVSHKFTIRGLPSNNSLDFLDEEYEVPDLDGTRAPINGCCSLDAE

IC50: 1700 nM
SMILES: CCCCCC[C@@H]([C@@H](C)O)n1cnc2c(N)ncnc21 (racemic) [EHNA]

Source: patent US8598155B2, “Imidazo[5,1-f][1,2,4]triazines for the treatment of neurological disorders” (Pfizer Inc., priority 2011, dated 2013)
